Experimental data: patent publication US20210000986A1, “INCLUSION COMPLEXES SUITABLE FOR USE AS A HISTOTRIPSY AGENT” (T.C ISTANBUL MEDIPOL ÜNIVERSITESI, priority 2018, published 2021)

Experiments:
[1] = Dynamic light scattering (DLS) size testing; format: physicochemical
Description: The size of the complex plays an important role in determining the threshold for histotripsy. Small size particles are more easily injected and they accumulate highly in tumor tissue. […] The results obtained in the DLS tests are shown as a graph in FIG. 2. Herein BCD is beta-cyclodextrin; MBCD is methylated beta-cyclodextrin and MIC refers to the inclusion complex of methylated beta-cyclodextrin and perfluorohexane.

[2] = tested on: kidney HEK-293T cells; format: cell-based
Description: The cell viability test is important to determine how the methylated beta-cyclodextrin perfluorohexane inclusion complex interacts with cells in the body.
Inclusion complexes according to the invention were tested using kidney HEK-293T cells from the reticulo-endothelial system organs responsible for cleansing blood in the body and removing various particles and antigens from blood flow and forming inflammatory mediators against immunological stimuli.
For this purpose, beta-cyclodextrin (BCD), methylated beta-cyclodextrin (MCD) and methylated beta-cyclodextrin and perfluorohexane inclusion complex (MIC) solutions at a concentration of 0.1 mg/mL, 0.5 mg/mL and 1 mg/mL were prepared. In addition, perfluorohexane (PFH) at amounts of 0.1 μL, 0.13 μL, 0.15 μL were also tested on the same cells. The amount of perfluorohexane tested was based on the amount of perfluorohexane in 1 mg/mL MIC. It was determined that in 1 mg/mL MIC there is 0.15 μL of perfluorohexane.

Molecule | size (DLS) [1] | toxicity (conclusion from cell viability) [2] | cell viability ([2]; human, 0.15 μL)
OC[C@H]1O[C@@H]2O[C@H]3[C@H](O)[C@@H](O)[C@@H](O[C@H]4[C@H](O)[C@@H](O)[C@@H](O[C@H]5[C@H](O)[C@@H](O)[C@@H](O[C@H]6[C@H](O)[C@@H](O)[C@@H](O[C@H]7[C@H](O)[C@@H](O)[C@@H](O[C@H]8[C@H](O)[C@@H](O)[C@@H](O[C@H]1[C@H](O)[C@H]2O)O[C@@H]8CO)O[C@@H]7CO)O[C@@H]6CO)O[C@@H]5CO)O[C@@H]4CO)O[C@@H]3CO [beta-cyclodextrin] | 16.42 nm |  | 
FC(F)(F)C(F)(F)C(F)(F)C(F)(F)C(F)(F)C(F)(F)F [perfluorohexane] |  | not toxic | 89%
methylated beta-cyclodextrin | 19.55 nm |  | 
